The values that follow come from US20230134059A1, “[…] AND METHODS FOR CORRECTING, SLOWING, REDUCING, AND/OR CONTROLLING THE PROGRESSION OF MYOPIA IN CONJUNCTION WITH USE OF ATROPINE OR RELATED COMPOUNDS” (Brien Holden Vision Institute Limited, priority 2020, published 2023).

Read-outs that look alike come from different tables or passages of the source.

The test system of series [1] is myopic children aged 8-10 years. The note with it: cited from earlier work.
Another series relates to eye of a -2.00 D myope. The series can be described thus: Spherical aberration of combined spectacle lens and eye system after Atropine-induced pupil increase. In kind it is in vivo. Conditions: pupillary diameter increased from about 3 mm to about 6 mm with use of Atropine. The text has this:
FIG. 1A illustrates a schematic plot of pupil diameters resulting from use of Atropine, a widely used muscarinic receptor antagonist and a pharmaceutical agent for myopia therapy. […] Considering FIG. 1A, it is observed that use of 0.01% Atropine which to date is the lowest concentration used for treatment of myopia in individuals, increases the photopic pupillary diameter by approximately 1 mm. Increasing the concentration to anywhere from 0.025% to 0.1% Atropine, increases the photopic pupil size from about 2 mm to about 3 mm. With the highest concentration of 0.5% Atropine, the increase in photopic pupil size was largest and at about 3 mm. An increase in pupil size increases aberrations of the eye. […] FIG. 1B illustrates the increase in higher order aberrations from 3rd to 6th order as determined by aberrometry for the myopic eye of an individual who has a distance refractive error of approximately −2.00 D. It is observed that there is a significant increase in aberrations with a larger pupil. An increase in the pupil size may result in a functional decrement in visual performance and one or more unwanted effects such as poorer visual performance, reduced contrast, blurred vision, increased glare and increased photophobia (sensitivity to light). […]

Series [2] has as its system eye of individuals treated for myopia. The note with it: cited from earlier work.
The subject of another series is myopia progression. Conditions: Atropine eye drops 0.01% to 1.0%; cited from earlier work.
For another series, the system named is children aged 6-12 years. The note with it: concentrations greater than 0.1% Atropine; cited from earlier work.

With `CN1[C@@H]2CC[C@H]1C[C@@H](OC(=O)C(CO)c1ccccc1)C2` (some centres unmarked) [Atropine], the “request photochromic progressive lenses, % of the time” value in series [1] (atropine 0.01%) is 6%; in series [1] (atropine 0.1%), 61%; in series [1] (atropine 0.5%), 70%. Besides, the “effective increase of spherical aberration of combined spectacle lens and eye system” value in the series with eye of a -2.00 D myope is reported as “about +0.50 D”. For the same molecule, the “increase in photopic pupillary diameter” value in series [2] (0.01% Atropine) is listed as “approximately 1 mm”. In addition, in series [2] (0.5% Atropine (highest concentration)), the “increase in photopic pupil size” value is “about 3 mm”. Besides, the “efficacy in slowing myopia, concentration dependent response” value in the series with myopia progression is given as “the higher the concentration, the greater the efficacy”. In addition, the “reduction in amplitude of accommodation” value with children aged 6-12 years is listed as “more than half”.
